Like-named read-outs stand apart in the source and are kept apart here.
Tests used:
[1] = test system: human cervical carcinoma cells (HeLa); assay: Dark and light cytotoxicity, resazurin cell viability assay, HeLa; format: cell-based; conditions: for PI (IC50 in the dark/IC50 upon light irradiation): 480 nm
Experimental: (§1) HeLa and CT-26 cell lines were cultured in DMEM media (Gibco, Life Technologies, USA) supplemented with 10% of fetal calf serum (Gibco). U87 and U373 cell lines were cultured in MEM media with addition of 1% of MEM NEAA (non-essential aminoacids) (Gibco) and 10% of fetal calf serum. RPE-1 cells were cultured in DMEM/F-12 (Gibco) supplemented with 10% of fetal calf serum. RPE-1 stable cells lines were cultured as RPE-1 cells with addition of geneticin (0.5 mg/ml) (Gibco). All cell lines were complemented with 100 U/ml penicillin-streptomycin mixture (Gibco), and maintained in humidified atmosphere at 37° C. and 5% of CO2.
(§2) Dark and light cytotoxicity of the Ru(II) complexes was assessed by fluorometric cell viability assay using resazurin (ACROS Organics). For dark and light cytotoxicity, cells were seeded in triplicates in 96 well plates at a density of 4000 cells per well in 100 μl, 24 h prior to treatment. The medium was then replaced with increasing concentration of the tested complexes and cells were incubated for 4 h. Medium was then replaced for fresh complete medium. Cells used for light cytotoxicity experiment were exposed to: 480 nm light for 10 min, 510 nm for 40 min, 540 for 60 min or 595 nm for 120 min in a 96-well plate using a LUMOS-BIO photoreactor (Atlas Photonics). Each well was individually illuminated with a LED at constant current. After irradiation cells were kept for another 44 h in the incubator and the medium was replaced by fresh complete medium containing resazurin (0.2 mg ml^−1 final concentration). After 4 h incubation at 37° C., the fluorescence signal of the resorufin product was read by SpectraMax M5 microplate reader (ex: 540 nm em: 590 nm). IC50 values were calculated using GraphPad Prism software.
(§3) The potential of the complexes to act as PDT PSs was determined on mouse colon carcinoma cells (CT-26), human glioblastoma cells (U87 and U373), human cervical carcinoma cells (HeLa) as well as non-cancerous retina pigmented epithelial cell line (RPE-1) according to the method described above. […] Ideally, a PDT PS should be non-toxic in the dark and highly toxic upon light activation. […] The toxicity of the compounds upon light irradiation (480 nm, 10 min, 3.21 J cm^−2) was then investigated.

[2] = test system: non-cancerous retina pigmented epithelial cell line (RPE-1); assay: Dark and light cytotoxicity, resazurin cell viability assay, RPE-1; format: cell-based; conditions: for PI (IC50 in the dark/IC50 upon light irradiation): RPE-1, 480 nm
Experimental: as §1, §2, §3

[3] = test system: CT-26 mouse colon carcinoma cells; assay: Dark and light cytotoxicity, resazurin cell viability assay, CT-26; format: cell-based; conditions: for PI (IC50 in the dark/IC50 upon light irradiation): CT-26, 480 nm
Experimental: as §1, §2, §3

[4] = test system: human glioblastoma cells (U373); assay: Dark and light cytotoxicity, resazurin cell viability assay, U373; format: cell-based; conditions: for PI (IC50 in the dark/IC50 upon light irradiation): U373, 480 nm
Experimental: as §1, §2, §3

[5] = Singlet oxygen measurement, direct evaluation (1O2 luminescence at 1270 nm); format: physicochemical; conditions: direct method, excitation at 450 nm; for Singlet oxygen quantum yield Φ(1O2), CH3CN Direct / Singlet oxygen quantum yield Φ(1O2), D2O Direct: average of three, +-10%
Experimental: The samples were prepared in an air saturated CH3CN or D2O solution with an absorbance of 0.2 at 450 nm. This solution was irradiated in fluorescence quartz cuvettes (width 1 cm) using a mounted M450LP1 LED (Thorlabs) whose irradiation, centered at 450 nm, has been focused with aspheric condenser lenses. The intensity of the irradiation has been varied using a T-Cube LED Driver (Thorlabs) and measured with an optical power and energy meter. The emission signal was focused and collected at right angle to the excitation pathway and directed to a Princeton Instruments Acton SP-2300i monochromator equipped with 600 g/mm grating blazed at 1200 nm. A longpass glass filter was placed in front of the monochromator entrance slit to cut off light at wavelengths shorter than 850 nm. The slits for detection were fully open. As a detector an EO-817L IR-sensitive liquid nitrogen cooled germanium diode detector (North Coast Scientific Corp.) has been used. The singlet oxygen luminesce at 1270 nm was measured by recording spectra from 1100 to 1400 nm. For the data analysis, the singlet oxygen luminescence peaks at different irradiation intensities were integrated. The resulting areas were plotted against the percentage of the irradiation intensity and the slope of the linear regression calculated. The absorbance of the sample was corrected with an absorbance correction factor. As reference for the measurement in an CH3CN solution phenalenone (Φphenaleone=0.95)^33 and for the measurement in a D2O solution [Ru(bipy)3]Cl2 (ΦRu(bipy)3C12=0.22)^31 was used and the singlet oxygen quantum yields were calculated using the following formula: […]
Additionally, the DFT calculations were able to characterize the lowest energy absorption band as a MLCT transition with a triplet state. With this in hand, a quantitative evaluation of singlet oxygen (^1O2) was performed to assess the potential of the PSs in PDT, by two methods: 1) direct by measurement of the luminescence of ^1O2, 2) indirect by measurement of the variation in absorbance of a reporter molecule, as described above. In the first method, the efficiency of the production of ^1O2 was assessed by measuring its phosphorescence at 1270 nm. Worthy of note, the possibility of detection in this experiment is affected by its environment as well as the used setup. With the setup used in this study, we could only detect Φ(^1O2) larger than 0.20 based on a low peak-to-noise ratio. In the second method (indirect method), ^1O2 is reacting with imidazole (in CH3CN) and histidine (in PBS buffer) to a trans-annular peroxide adduct. This can further quench the absorbance of the reporter molecule p-nitrosodimethyl aniline (RNO), which has been monitored by UV/VIS spectroscopy. In both methods, the ^1O2 production has been compared with a reference molecule, namely a solution of phenalenone in CH3CN (Φ(^1O2)phenaleone=0.95)^33 and a solution of [Ru(bipy)3]Cl2 in water Φ(^1O2)Ru(bipy)3Cl2=0.22)^31. […] In comparison, the values changed drastically in an aqueous solution. […] They have untypically low Φ(^1O2) values in CH3CN (0.22-0.35) for Ru(II) polypyridyl complexes. Subsequently, the ^1O2 production was also quite low in an aqueous environment.

[6] = test system: human glioblastoma cells (U87); assay: Dark and light cytotoxicity, resazurin cell viability assay, U87; format: cell-based; conditions: for PI (IC50 in the dark/IC50 upon light irradiation): U87, 480 nm
Experimental: as §1, §2, §3

[7] = light 480 nm, 10 min, 3.21 J cm^−2, read-out: IC50 Light
[8] = RPE-1, dark, read-out: IC50 Dark
[9] = RPE-1, light 480 nm, 10 min, 3.21 J cm^−2, read-out: IC50 Light
[10] = CT-26, dark, 4 h incubation, read-out: IC50 Dark
[11] = CT-26, light 480 nm, 10 min, 3.21 J cm^−2, read-out: IC50 Light
[12] = U373, dark, read-out: IC50 Dark
[13] = U373, light 480 nm, 10 min, 3.21 J cm^−2, read-out: IC50 Light
[14] = U87, light 480 nm, 10 min, 3.21 J cm^−2, read-out: IC50 Light

Row | Compound | IC50 ([1]; dark, read-out: IC50 Dark) [µM] | IC50 [1, 7] [µM] | IC50 [2, 8] [µM] | IC50 [2, 9] [µM] | IC50 [3, 10] [µM] | IC50 [3, 11] [µM] | IC50 [4, 12] [µM] | IC50 [4, 13] [µM] | Singlet oxygen quantum yield Φ(1O2), CH3CN Direct [5] | Singlet oxygen quantum yield Φ(1O2), D2O Direct [5] | PI (IC50 in the dark/IC50 upon light irradiation) ([6]; 10 min) | IC50 ([6]; U87, dark, read-out: IC50 Dark) [µM] | IC50 [6, 14] [µM] | PI (IC50 in the dark/IC50 upon light irradiation) ([3]; 10 min) | Singlet oxygen quantum yield Φ(1O2), D2O Direct (not determinable) [5] | other results
1 | F[P-](F)(F)(F)(F)F.F[P-](F)(F)(F)(F)F.[Ru+2].c1ccc(-c2ccccn2)nc1.c1cnc2c(c1)ccc1cccnc12.c1cnc2c(c1)ccc1cccnc12 [Compound 1, (Bipyridine)bis(1,10-phenanthroline)ruthenium(II)hexafluorophosphate] | > 100 | > 100 | > 100 | > 100 | > 100 | > 100 | > 100 | > 100 | 0.57 | 0.27 | >1 | > 100 | 93.7 ± 2.5 | – | – | –
2 | Cc1ccnc(-c2cc(C)ccn2)c1.F[P-](F)(F)(F)(F)F.F[P-](F)(F)(F)(F)F.[Ru].c1cnc2c(c1)ccc1cccnc12.c1cnc2c(c1)ccc1cccnc12 [Compound 2, (4,4′-Dimethyl-2,2′-bipyridine)bis(1,10-phenanthroline)ruthenium(II)hexafluorophosphate] | > 100 | > 100 | > 100 | > 100 | > 100 | 91.2 ± 7.54 | > 100 | > 100 | 0.69 | 0.31 | >1 | > 100 | 71.4 ± 7.54 | >1 | – | –
3 | (2,2′-bipyridine-4,4′-carboxamide)bis(1,10-phenanthroline)ruthenium(II) hexafluorophosphate [Compound 4] | > 100 | > 100 | > 100 | > 100 | > 100 | 72.6 ± 7.44 | > 100 | > 100 | 0.62 | 0.25 | – | > 100 | > 100 | >1 | – | –
4 | (4,4′-Dibromo-2,2′-bipyridine)bis(1,10-phenanthroline)ruthenium(II) hexafluorophosphate [Compound 3] | > 100 | > 100 | > 100 | > 100 | > 100 | 85.7 ± 9.47 | > 100 | > 100 | 0.55 | not detectable | – | > 100 | > 100 | >1 | n.d. (n.d. = not determinable, Φ(^1O2) < 0.20) | –
5 | (4,4′-Dimethyl-2,2′-bipyridine)bis(4,7-diphenyl-1,10-phenanthroline)ruthenium(II) hexafluorophosphate [Compound 6] | 13.6 ± 1.3 | 0.61 ± 0.06 | 28.8 ± 0.94 | 0.825 ± 0.03 | 3.09 ± 0.3 | 0.19 ± 0.04 | 23.4 ± 0.53 | 1.89 ± 0.07 | 0.61 | not detectable | 42.5 | 28.4 ± 1.97 | 0.67 ± 0.13 | 16.3 | n.d. (n.d. = not determinable, Φ(^1O2) < 0.20) | PI (IC50 in the dark/IC50 upon light irradiation) ([1]; 10 min): 22.2; PI (IC50 in the dark/IC50 upon light irradiation) ([2]; 10 min): 34.9; PI ([3]; CT-26, 510 nm 40 min): 20.6; PI ([3]; CT-26, 540 nm 60 min): 9.6; PI ([3]; CT-26, 595 nm 2 h): 23.47; IC50 ([3]; CT-26, dark control of the 510 nm 40 min experiment, read-out: IC50 Dark): 4.18 ± 0.56 µM; IC50 ([3]; CT-26, dark control of the 540 nm 60 min experiment, read-out: IC50 Dark): 3.27 ± 0.64 µM; IC50 ([3]; CT-26, dark control of the 595 nm 2 h experiment, 2 h at 37° C. in non-CO2 atmosphere, read-out: IC50 Dark): 1.408 ± 0.003 µM; IC50 ([3]; CT-26, light 540 nm 60 min, read-out: IC50 Light): 0.34 ± 0.005 µM; IC50 ([3]; CT-26, light 595 nm 2 h, no CO2 atmosphere during irradiation, read-out: IC50 Light): 0.06 ± 0.004 µM; PI (IC50 in the dark/IC50 upon light irradiation) ([4]; 10 min): 12.37
6 | ((E,E′)-4,4′-Bis(N,N′-dimethylaminovinyl)-2,2′-bipyridine)bis(1,10-phenanthroline)ruthenium(II) hexafluorophosphate [Compound 5] | > 100 | > 100 | > 100 | > 100 | > 100 | 52.5 ± 6.04 | > 100 | > 100 | 0.24 | – | – | > 100 | > 100 | >2 | n.d. (n.d. = not determinable, Φ(^1O2) < 0.20) | –
7 | ((E,E′)-4,4′-Bis(N,N′-dimethylaminovinyl)-2,2′-bipyridine)bis(4,7-diphenyl-1,10-phenanthroline)ruthenium(II) hexafluorophosphate [Compound 7] | > 100 | 15.2 ± 1.29 | > 100 | 8.95 ± 0.5 | 94.5 ± 7.38 | 6.62 ± 0.7 | > 100 | 14.8 ± 0.81 | 0.22 | – | >12.7 | > 100 | 7.9 ± 0.54 | 14.3 | n.d. (n.d. = not determinable, Φ(^1O2) < 0.20) | PI (IC50 in the dark/IC50 upon light irradiation) ([1]; 10 min): >6.5; PI (IC50 in the dark/IC50 upon light irradiation) ([2]; 10 min): >11.2; PI (IC50 in the dark/IC50 upon light irradiation) ([4]; 10 min): >6.7
